Measured values: patent publication US9932339B2, “Helquats with heteroaromatic substituents, preparation thereof, and use thereof as G-quadruplex stabilizers” (USTAV ORGANICKE CHEMIE A BIOCHEMIE AV CR, V.V.I., priority 2014, dated 2018)

Legend:
c-myc protein = assay: Immunodetection of protein c-myc in HGC-27 cell lysates (Western blot); type: cell-based, human; settings: 50 μmol · l^−1, 24 hour incubation, normalized to β-actin
Procedure: Determination of changes in c-myc protein expression (transcription factor) in cell lysates prepared from tumor cell line HGC-27 after treatment with test helquats (Tab. 7) was carried out by immunodetection after separation of proteins according to their size by gel electrophoresis (SDS-PAGE) and blotting.
To determine the influence helquats on expression of c-myc protein, the cells were cultured under standard conditions and in the exponential growth phase were seeded into flasks at a density of 25,000 cells/cm^2. The next day selected helquats were added at a concentration of 50 μmol·l^−1. After 24 hour incubation, the cell pellets were obtained and, after addition of RIPA buffer with protease inhibitors (PrIC) and phosphatases (PhIC) (for composition see Tab. 8) cell lysates were prepared. 150 μl of RIPA buffer was used for 10^7 cells. Protein concentrations in the lysates were measured by BCA method. Separation of proteins in the lysates was carried out on a 12% denaturing polyacrylamide gel. The separated proteins were transferred to PVDF membrane by Western blotting.
Incubation with primary mouse monoclonal antibody against the protein c-myc (dilution 1:1000 in “SignalBoost” reagent) was carried out overnight at 4° C., and then with the primary mouse anti-β-actin (1:5000 dilution in 5% milk in TBS-T buffer) at room temperature for 2 hours. Subsequently, the secondary horse monoclonal antibody conjugated to horseradish peroxidase (diluted 1:2000 in 5% milk in TBS-T buffer) binding to mouse IgG antibody was applied. C-myc proteins and β-actin bound to the membrane were visualized using detection kit (SuperSignal® West Femto Maximum Sensitivity Substrate, Cat. No. 34095, Thermo Fisher Scientific, Inc., USA) in the chemiluminescence detection system ImageQuant LAS 4000 Mini (Cat. No. 28-9558-13, GE Healthcare Life Sciences, USA). The amount of protein was quantified by densitometry in Quantity One software. The amount of c-myc in the samples was normalized to β-actin, and subsequently related to a control sample.

[1] = system: G-quadruplex in promoter region of the c-myc gene (NHE III1 segment); assay: Dual luciferase analysis with plasmid pGL4.10-myc (luc2) in HGC-27 cells; type: cell-based, human; settings: Homo sapiens; for inhibition at 50 µM: HGC-27, text summary of tab. 5 (50 μmol·l^−1), read-out: inhibition of expression of firefly luciferase as compared to control; for activity at 50 µM: helquat 50 μmol · l^−1, HGC-27, firefly normalized to Renilla, 24 hours after transfection, read-out: luciferase expression relative to control (control = 100%)
Description: A dual luciferase analysis was used to determine the degree of stabilization of G-quadruplex in a promoter region of the c-myc gene on cellular level. Stabilization of G-quadruplex is expressed as the ratio of expression of two luciferases (firefly and Renilla) from the co-transfected vectors pGL4.10-myc (luc2) and pRL-TK (Renilla) into a cell line HGC-27 expressing c-myc protein. Expression of the reporter gene (firefly luciferase) from pGL4.10-myc vector is controlled by the c-myc regulatory region of a length of 860 by (in the range from −306 to +554). The inserted sequence contains NHE III1 segment which forms G-quadruplex [Yang, D. et al. (2010) Future Med Chem., 2, 619], and is responsible for as much as 90% of the transcriptional activity of the c-myc gene.
Level of expression of firefly luciferase reporter gene corresponds to promoter activity of c-myc and thus to the degree of stabilization of the G-quadruplex. The signal is normalized to Renilla luciferase expression from pRL-TK vector under the control of a constitutive viral thymidine kinase (HSV-TK) promoter. The amount of Renilla luciferase expression serves as an internal control for normalization of firefly signal on transfection efficiency in the sample. Plasmids pGL4.10-myc (luc2) and pRL-TK were propagated in Escherichia coli (DH5α strain) and purified using the Qiagen Plasmid Mini and Midi kits. Cells were cultured under standard conditions and in exponential growth phase were seeded into a white 96-well microtiter plates. Transfection was carried out using a transfection reagent X-tremeGENE HP DNA in OptiMEM media for two hours. The ratio of reporter and control vector was 1:1 and the ratio of transfection reagent to the total amount of DNA was 1:1. Two hours after transfection helquats were added in a concentration of 50 μmol·l^−1. Quantity of firefly and Renilla luciferases in the samples was determined 24 hours after transfection. Dual luciferase analysis was performed using a commercially available kit (Promega, cat. No. E1960) according to manufacturer's instructions. Luminescence was measured using a luminometer EnSpire Alpha Plate Reader. The data obtained were normalized to the Renilla luciferase signal and then the values were related to control.

[2] = system: G-quadruplex oligonucleotide Fmyc27T (NHE III1 promoter region of c-myc oncogene); assay: FRET melting of G-quadruplex oligonucleotide Fmyc27T with ligands; type: binding; settings: for ΔTm (° C.) Fmyc27T/ds26 (° C.): helquat 1 μmol·l^−1, oligonucleotide 0.2 μmol·l^−1, 50-fold excess of double-stranded competitor ds26; for ΔTm (° C.) Fmyc27T: helquat 1 μmol·l^−1, oligonucleotide 0.2 μmol·l^−1, without competitor
Description: (§1) To determine the degree of in vitro interactions of helquats with G-quadruplex(es), the oligonucleotides containing the guanine-rich sequences of human telomere (F21T) and NHE III1 promoter region of c-myc oncogene (Fmyc27T) were used. Both oligonucleotides capable of forming an intramolecular G-quadruplex were end-labeled with suitable fluorophores so as to form donor-acceptor FRET pair (5′-FAM and 3′-TAMRA). If the oligonucleotide is folded into the structure of the G-quadruplex, donor is in close proximity of acceptor and radiationless energy transfer to the acceptor occurs. With increasing temperature of the reaction mixture G-quadruplex structure gradually denatures and thus the donor and acceptor (FAM-TAMRA) drift apart. This leads to an increase in fluorescence of donor (FAM) and a decrease in fluorescence of acceptor (TAMRA).
(§2) The result of measurement is the curve of dependence of the intensity of fluorescence of the donor on the temperature. If the G-quadruplex is stabilized by ligand, melting temperature will increase. Melting temperature of G-quadruplex corresponds to the temperature when 50% of the original amount of the folded G-quadruplex is denatured. The measurement outcome is the difference in the melting temperatures (ΔTm) of the G-quadruplex alone and the G-quadruplex stabilized by ligand. In case of Fmyc27T experiments were performed in cacodylate buffer (10 mmol·l^−1, pH=7.2) with KCl (5 mmol·l^−1) and LiCl (95 mmol·l^−1) oligonucleotide and in case of F21T oligonucleotide in cacodylate buffer (10 mmol·l^−1, pH=7.2) with KCl (25 mmol·l^−1) and LiCl (75 mmol·l^−1).
(§3) Both oligonucleotides were denatured for 5 minutes at 95° C. and subsequently allowed to cool to room temperature (3 hours) in the switched-off thermoblock. The final oligonucleotide concentration in the reaction mixture was 0.2 μmol·l^−1. Test helquats were present at concentrations of 1 μmol·l^−1. The total reaction volume was 30 μl. The melting temperature of the oligonucleotides alone (without the presence of helquats) under these conditions was 58.1±0.2° C. for F21T and 64.7±0.4° C. for Fmyc27T. For determining the selectivity of binding of helquats to G-quadruplex in comparison with the double-stranded DNA, 50-fold excess of double-stranded DNA ([…] unlabeled competitor ds26 forming a hairpin) is added to the reaction mixture. After the addition to the reaction mixture ds26 competes with labeled oligonucleotide (Fmyc27T or F21T) for ligand binding. […] Melting temperature of oligonucleotides alone in the presence of the competitor is 59.4±0.5° C. for F21T and 66.3° C.±0.6° C. for Fmyc27T.
(§4) Fluorescence of FAM donor was measured using real-time PCR apparatus Opticon 2 (excitation 470-505 nm and emission 523-543 nm) in temperature increments of 0.5° C. in the range 25 to 95° C. Evaluation of the sigmoid curves of fluorescence intensity dependent on the temperature were performed in GraphPad Prism 5 (GraphPad Software, Inc., USA). Using nonlinear five parametric regression the inflection point on the curve was calculated that corresponds to the melting temperature (Tm) of the G-quadruplex under the given conditions. The values were obtained from at least three independent measurements.

[3] = system: G-quadruplex oligonucleotide F21T (human telomere); assay: FRET melting of G-quadruplex oligonucleotide F21T with ligands; type: binding; settings: for ΔTm (° C.) F21T/ds26: helquat 1 μmol·l^−1, oligonucleotide 0.2 μmol·l^−1, 50-fold excess of double-stranded competitor ds26; for ΔTm (° C.) F21T: helquat 1 μmol·l^−1, oligonucleotide 0.2 μmol·l^−1, without competitor
Description: as §1, §2, §3, §4

Compound | c-myc protein expression relative to control (control = 100%) (c-myc protein) [%] | inhibition at 50 µM [1] [%] | activity at 50 µM [1] [%] | ΔTm (° C.) Fmyc27T/ds26 (° C.) [2] [°C] | ΔTm (° C.) Fmyc27T [2] [°C] | ΔTm (° C.) F21T/ds26 [3] [°C] | ΔTm (° C.) F21T [3] [°C]
2,4,15,17-tetra((E)-(2-(1-methyl-1H-indol-2-yl)vinyl)-6,7,8,11,12,13-hexahydrodipyrido[1,2-a:1′,2′-a′]benzo[2,1-c:3,4-c′]bisazepindiium trifluoromethanesulfonate [PRC-C10-10] | 71 | – | – | – | – | – | –
C(=C\c1cc(/C=C/c2ccsc2)[n+]2c(c1)-c1c(ccc3c1-c1cc(/C=C/c4ccsc4)cc(/C=C/c4ccsc4)[n+]1CCC3)CCC2)/c1ccsc1 (racemic) [PRC-C5-9, (rac)-2,4,13,15-tetrakis((E)-2-(thiophen-3-yl)vinyl)-6,7,8,11,12,13-hexahydro-dipyrido[1,2-a;1′,2′-a′]benzo[2,1-c:3,4-c′]bisazepindiium trifluoromethanesulfonate] | 34 | – | – | – | – | – | –
C(=C\c1cc2ccccc2[nH]1)/c1cc(/C=C/c2cc3ccccc3[nH]2)[n+]2c(c1)-c1c(ccc3c1-c1cccc[n+]1CC3)CC2.O=S(=O)([O-])C(F)(F)F.O=S(=O)([O-])C(F)(F)F [HTA-C10-10, 2,4-bis((E)-2-(1H-indol-2-yl)vinyl)-6,7,10,11-tetrahydrodipyrido[2,1-a:1′,2′-k][2,9]phenanthroline-5,12-diium trifluoromethanesulfonate] | 75 | – | – | – | – | – | –
C(=C\c1ccc(-c2cccs2)s1)/c1cc[n+]2c(c1)-c1c(ccc3c1-c1cccc[n+]1CC3)CC2.O=S(=O)([O-])C(F)(F)F.O=S(=O)([O-])C(F)(F)F [LSA-C9-16, (E)-2-(2-([2,2′-bithiophen]-5-yl)vinyl)-6,7,10,11-tetrahydrodipyrido[2,1-a:1′,2′-k][2,9]phenanthroline-5,12-diium trifluoromethanesulfonate] | 28 | – | – | – | – | – | –
COc1ccc(/C=C/c2cc[n+]3c(c2)-c2c(c(C)c(C)c4c2-c2cccc(/C=C/c5ccc(OC)nc5OC)[n+]2CC4)CC3)c(OC)n1.O=S(=O)([O-])C(F)(F)F.O=S(=O)([O-])C(F)(F)F [MJB-C8-27, 2,13-bis((E)-2-(2,6-dimethoxypyridin-3-yl)vinyl)-8,9-dimethyl-6,7,10,11-tetrahydrodipyrido[2,1-a:1′,2′-k][2,9]phenanthroline-5,12-diium trifluoromethanesulfonate] | – | > 10 | 88 | 10.0 | 9.7 | 5.2 | 8.0
COc1ccc(/C=C/c2cc[n+]3c(c2)-c2c(ccc4c2-c2cc(/C=C/c5ccc(OC)nc5OC)cc[n+]2CC4)CC3)c(OC)n1 [PDA-C8-27, 2,15-bis((E)-2-(2,6-dimethoxypyridin-3-yl)vinyl)-6,7,10,11-tetrahydrodipyrido[2,1-a:1′,2′-k][2,9]phenanthroline-5,12-diium trifluoromethanesulfonate] | – | > 20 | 77 | 9.6 | 11.8 | 7.0 | 9.3
Brc1ccc2[nH]cc(/C=C/c3cc[n+]4c(c3)-c3c(ccc5c3-c3cc(/C=C/c6c[nH]c7ccc(Br)cc67)cc[n+]3CC5)CC4)c2c1.O=S(=O)([O-])C(F)(F)F.O=S(=O)([O-])C(F)(F)F [PDA-C9-30, 2,15-bis((E)-2-(5-bromo-1H-indol-3-yl)vinyl)-6,7,10,11-tetrahydrodipyrido[2,1-a:1′,2′-k][2,9]phenanthroline-5,12-diium trifluoromethanesulfonate] | – | – | – | 16.0 | 14.6 | 13.1 | 12.3
Cn1cc(/C=C/c2cc[n+]3c(c2)-c2c(ccc4c2-c2cc(/C=C/c5cn(C)c6ccccc56)cc[n+]2CC4)CC3)c2ccccc21 [PDA-C10-13, 2,15-bis((E)-2-(1-methyl-1H-indol-3-yl)vinyl)-6,7,10,11-tetrahydrodipyrido[2,1-a:1′,2′-k][2,9]phenanthroline-5,12-diium trifluoromethanesulfonate] | – | – | – | 13.6 | 13.8 | 9.1 | 9.7
Cc1c(C)c2c(c3c1CC[n+]1ccc(/C=C/c4c(-c5ccccc5)[nH]c5ccccc45)cc1-3)-c1cc(/C=C/c3c(-c4ccccc4)[nH]c4ccccc34)cc[n+]1CC2 [PDB-C15-8, 8,9-dimethyl-2,15-bis((E)-2-(2-phenyl-1H-indol-3-yl)vinyl)-6,7,10,11-tetrahydrodipyrido[2,1-a:1′,2′-k][2,9]phenanthroline-5,12-diium trifluoromethanesulfonate] | – | – | – | 14.5 | 15.7 | 11.1 | 11.3
